This assay has as its system HeLa cells. Kind of assay: Accumulation of SUMOylated proteins in HeLa cells (Western blot, 48 hours). It is filed as cell-based. On the technique in general: A western blot detects proteins with antibodies after separation by electrophoresis.

Regarding `Nc1ccc2ccccc2c1/N=N/c1ccc(/C=C/c2ccc(/N=N/c3c(N)ccc4ccccc34)cc2S(=O)(=O)O)c(S(=O)(=O)O)c1` [SPI-01], the “accumulation of SUMO-1 conjugates in cells” value is given as “less significant effects”. Moreover, under “increasing concentrations”, the “accumulation of SUMO-2/3 conjugates in cells” value is on record as “accumulation correlated with inhibitor concentration”.

For the origin of these results see US11041859B2, “Methods of identifying SENP1 inhibitors” (priority 2013, dated 2021).
